In US7332608B2, “Anthranilamides and methods of their use” (SANOFI-AVENTIS Deutschland GmbH, priority 2001, dated 2008):

Target: T1, Human Kv1.5 channels (Homo sapiens, UniProt P22460)
T1 construct: expressed in transfected cells; host or cells: Xenopus laevis oocytes injected with in vitro synthesized Kv1.5-encoding RNA
Assay: Kv1.5 currents in Xenopus oocytes, two-microelectrode voltage clamp
Type: cell-based
Settings: human Kv1.5 expressed in Xenopus laevis oocytes; voltage jumps 500 ms to 0 mV and 40 mV; room temperature; Hill equation
Experimental: Human Kv1.5 channels were expressed in Xenopus oocytes. For this purpose, firstly ooytes were isolated from Xenopus laevis and were defolliculated. Kv1.5-encoding RNA which had been synthesized in vitro was then injected into these oocytes. After 1-7 days of Kv1.5 protein expression, the Kv1.5 currents were measured on the oocytes by the two-microelectrode voltage clamp technique. The Kv1.5 channels were for this purpose usually activated with voltage jumps lasting 500 ms to 0 mV and 40 mV. A solution of the following composition flowed through the bath: NaCl 96 mM, KCl 2 mM, CaCl2 1.8 mM, MgCl2 1 mM, HEPES 5 mM (titrated to pH 7.4 with NaOH). These experiments were carried out at room temperature. The following were employed for data acquisition and analysis: geneclamp amplifier (Axon Instruments, Foster City, USA) and MacLab D/A converter and software (ADInstruments, Castle Hill, Australia). The compounds of the invention were tested by adding them in various concentrations to the bath solution. The effects of the compounds were calculated as percentage inhibition of the Kv1.5 control current which was obtained when no compound was added to the solution. The data were then extrapolated using the Hill equation in order to determine the inhibitory concentrations IC50 for the respective compounds.

T1 sequence (P22460 whole entry): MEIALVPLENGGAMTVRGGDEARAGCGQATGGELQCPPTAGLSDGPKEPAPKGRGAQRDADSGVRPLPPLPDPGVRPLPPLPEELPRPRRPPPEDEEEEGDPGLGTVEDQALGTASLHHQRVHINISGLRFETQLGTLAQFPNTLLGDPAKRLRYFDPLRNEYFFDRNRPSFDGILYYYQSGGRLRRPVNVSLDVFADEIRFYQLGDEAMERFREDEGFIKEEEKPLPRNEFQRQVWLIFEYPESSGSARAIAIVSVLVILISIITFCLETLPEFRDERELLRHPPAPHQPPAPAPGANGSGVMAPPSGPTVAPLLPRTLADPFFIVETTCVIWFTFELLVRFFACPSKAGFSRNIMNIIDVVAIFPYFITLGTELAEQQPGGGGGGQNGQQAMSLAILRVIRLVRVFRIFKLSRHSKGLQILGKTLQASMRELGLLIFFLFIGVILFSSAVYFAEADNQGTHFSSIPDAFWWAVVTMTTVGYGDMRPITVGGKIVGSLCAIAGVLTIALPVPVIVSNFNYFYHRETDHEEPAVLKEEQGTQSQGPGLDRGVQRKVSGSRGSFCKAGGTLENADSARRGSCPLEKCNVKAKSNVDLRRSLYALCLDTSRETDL

| Structure (SMILES) | IC50 [µM] |
| --- | --- |
| C[C@H](NC(=O)c1cc(Cl)ccc1NS(=O)(=O)c1ccccc1)c1ccccc1 [Example 1, (S)-2-Phenylsulfonylamino-5-chloro-N-(1-phenylethyl)benzamide] | 5.5 |
| C[C@@H](NC(=O)c1cc(Cl)ccc1NS(=O)(=O)c1ccccc1)c1ccccc1 [Example 2, (R)-2-Phenylsulfonylamino-5-chloro-N-(1-phenylethyl)benzamide] | 8.2 |
| CC[C@H](NC(=O)c1cc(Cl)ccc1NS(=O)(=O)c1ccccc1)c1ccccc1 [Example 3, (S)-2-Phenylsulfonylamino-5-chloro-N-(1-phenylpropyl)benzamide] | 2.8 |
| CC[C@@H](NC(=O)c1cc(Cl)ccc1NS(=O)(=O)c1ccccc1)c1ccccc1 [Example 4, (R)-2-Phenylsulfonylamino-5-chloro-N-(1-phenylpropyl)benzamide] | 4.1 |
| COc1ccc([C@H](C)NC(=O)c2cc(Cl)ccc2NS(=O)(=O)c2ccccc2)cc1 [Example 5, (S)-2-Phenylsulfonylamino-5-chloro-N-[1-(4-methoxyphenyl)ethyl]-benzamide] | 4.5 |
| COc1ccc([C@@H](C)NC(=O)c2cc(Cl)ccc2NS(=O)(=O)c2ccccc2)cc1 [Example 6] | 8.2 |
| O=C(NC(c1ccccc1)c1ccccn1)c1cc(Cl)ccc1NS(=O)(=O)c1ccccc1 (stereo not drawn) [Example 7, 2-Phenylsulfonylamino-5-chloro-N-(phenylpyridin-2-ylmethyl)benzamide] | 5.1 |
| Cc1ccc(S(=O)(=O)Nc2ccccc2C(=O)N(Cc2ccccc2)Cc2cccnc2)cc1 [Example 8, N-Benzyl-N-pyridin-3-ylmethyl-2-(toluene-4-sulfonylamino)benzamide] | 0.9 |
| COc1ccc(S(=O)(=O)Nc2cc(C)ccc2C(=O)NC(C)c2ccccc2)cc1 (stereo not drawn) [Example 9] | 4.9 |
| CCC(NC(=O)c1cccc(C)c1NS(=O)(=O)c1ccc(Cl)cc1)c1ccccc1 (stereo not drawn) [Example 10] | 2.5 |
| CCN(C(=O)c1ccccc1NS(=O)(=O)c1ccc(Cl)cc1)C1CCCCC1 [Example 11] | 8 |
| CCN(C(=O)c1ccccc1NS(=O)(=O)c1ccc(C)cc1)C1CCCCC1 [Example 12] | 5.4 |
| Cc1ccc(S(=O)(=O)Nc2ccc(F)cc2C(=O)NC2CCCCC2)cc1 [Example 14] | 8.5 |
| CCN(C(=O)c1cc(F)ccc1NS(=O)(=O)c1ccc(C)cc1)C1CCCCC1 [Example 15] | 7.8 |
| CCN(C(=O)c1cc(Cl)ccc1NS(=O)(=O)c1ccc(C)cc1)C1CCCCC1 [Example 16] | 6.4 |
| O=C(NC1CCCCC1)c1cc(Cl)ccc1NS(=O)(=O)c1ccccc1 [Example 17] | 7.5 |
| CCN(C(=O)c1cc(Cl)ccc1NS(=O)(=O)c1ccccc1)C1CCCCC1 [Example 18] | 6.7 |
| COc1ccc(S(=O)(=O)Nc2c(C)cccc2C(=O)NC(C)c2ccccc2)cc1 (stereo not drawn) [Example 19] | 4.2 |
| CCCCS(=O)(=O)Nc1cc(C)ccc1C(=O)NC1CCCCC1 [Example 20] | 7.7 |
| Cc1ccc(NS(=O)(=O)c2ccccc2)c(C(=O)NC2CCCCC2)c1 [Example 21] | 5.2 |
| Cc1cccc(NS(=O)(=O)c2ccc(Cl)cc2)c1C(=O)NC1CCCCC1 [Example 22] | 4.8 |
| Cc1cccc(NS(=O)(=O)c2ccc(Cl)cc2)c1C(=O)NC(C)c1ccccc1 (stereo not drawn) [Example 23] | 5 |
| CCC(NC(=O)c1c(C)cccc1NS(=O)(=O)c1ccc(Cl)cc1)c1ccccc1 (stereo not drawn) [Example 24] | 3 |
| COc1ccc(S(=O)(=O)Nc2cc(C)ccc2C(=O)NC2CCCCC2)cc1 [Example 25] | 3.4 |
| CCC(NC(=O)c1cc(OC)ccc1NS(=O)(=O)c1ccc(C)cc1)c1ccccc1 (stereo not drawn) [Example 26] | 0.6 |
| COc1ccc(NS(=O)(=O)c2ccc(C)cc2OC)c(C(=O)NC2CCC(C)CC2)c1 (stereo not drawn) [Example 27] | 5.6 |
| Cc1ccc(S(=O)(=O)Nc2ccccc2C(=O)NC(C)c2ccccc2)cc1 (stereo not drawn) [Example 28] | 3.2 |

| Structure (SMILES) | IC50 [µM] |
| --- | --- |
| COc1cc(C)ccc1S(=O)(=O)Nc1ccc(Cl)cc1C(=O)NCCOCc1ccccc1 [Example 29] | 5.1 |
| Cc1ccc(S(=O)(=O)Nc2ccccc2C(=O)N(Cc2ccccc2)Cc2nccn2C)cc1 [Example 30] | 0.7 |
| Cc1ccc(S(=O)(=O)Nc2ccccc2C(=O)N(Cc2ccccc2)CC2CCCCC2)cc1 [Example 31] | 2.6 |
| Cc1ccc(S(=O)(=O)Nc2ccccc2C(=O)N(CCCn2ccnc2)Cc2ccccc2)cc1 [Example 32] | 8.5 |
| Cc1ccc(S(=O)(=O)Nc2ccccc2C(=O)N(Cc2ccccc2)Cc2ccncc2)cc1 [Example 33] | 6.5 |
| Cc1ccc(S(=O)(=O)Nc2ccccc2C(=O)N(Cc2cccnc2)CC2CC2)cc1 [Example 34] | 3.1 |
| Cc1ccc(S(=O)(=O)Nc2ccccc2C(=O)N(Cc2ccccc2)Cc2nc3ccccc3[nH]2)cc1 [Example 35] | 2 |
| Cc1ccc(S(=O)(=O)Nc2ccccc2C(=O)N(Cc2ccccc2)Cc2ccc(C)o2)cc1 [Example 36] | 2 |
| Cc1ccc(S(=O)(=O)Nc2ccccc2C(=O)N(Cc2ccccc2)CC2CC2)cc1 [Example 37] | 1.9 |
| Cc1ccc(S(=O)(=O)Nc2ccccc2C(=O)N(Cc2ccccc2)Cc2ccco2)cc1 [Example 38] | 1.6 |
| Cc1ccc(S(=O)(=O)Nc2ccccc2C(=O)N(CCCn2ccnc2C)Cc2ccccc2)cc1 [Example 39] | > 10 |
| Cc1ccc(S(=O)(=O)Nc2cc(C)ccc2C(=O)N(Cc2ccccc2)Cc2nccn2C)cc1 [Example 40] | 0.8 |
| COc1ccc(NS(=O)(=O)c2ccc(C)cc2)c(C(=O)N(Cc2ccccc2)Cc2nccn2C)c1 [Example 41] | 1.9 |
| Cc1ccc(S(=O)(=O)Nc2ccccc2C(=O)N(CCc2ccccn2)CC2CC2)cc1 [Example 42] | 5 |
| COc1ccc(NS(=O)(=O)c2cccc(C(F)(F)F)c2)c(C(=O)N(Cc2ccccc2)Cc2nccn2C)c1 [Example 43] | 5.4 |
| O=C(c1ccccc1NS(=O)(=O)c1ccc(Cl)cc1)N(Cc1ccccc1)Cc1cccnc1 [Example 44] | 2.9 |
| Cc1ccc(S(=O)(=O)Nc2ccc(Cl)cc2C(=O)N(Cc2ccccc2)Cc2cccnc2)cc1 [Example 45] | 2.5 |
| Cc1ccc(S(=O)(=O)Nc2ccc(F)cc2C(=O)N(Cc2ccccc2)Cc2cccnc2)cc1 [Example 46] | 1.2 |
| COc1ccc(S(=O)(=O)Nc2cccc(C)c2C(=O)N(Cc2ccccc2)Cc2cccnc2)cc1 [Example 47] | 4.7 |
| Cc1ccc(S(=O)(=O)Nc2ccccc2C(=O)N(Cc2ccncc2)CC2CC2)cc1 [Example 48] | > 10 |
| Cc1ccc(S(=O)(=O)Nc2ccccc2C(=O)N(CCc2cccnc2)CC2CC2)cc1 [Example 49] | 6.3 |
| COc1ccc(S(=O)(=O)Nc2ccccc2C(=O)N(Cc2ccccc2)Cc2cccnc2)cc1 [Example 50] | 0.7 |
| CCC(Cc1ccccc1)NC(=O)c1cc(OC)ccc1NS(=O)(=O)c1ccc(C)cc1 (stereo not drawn) [Example 51] | 3.6 |
| CCC(Cc1ccccc1)NC(=O)c1ccccc1NS(=O)(=O)c1ccccc1 (stereo not drawn) [Example 52] | 3 |
| CCC(NC(=O)c1cc(OC)ccc1NS(=O)(=O)c1ccc(C)cc1)c1ccncc1 (stereo not drawn) [Example 53] | 2.5 |
| CCCCS(=O)(=O)Nc1ccc(C)cc1C(=O)NC1CCCCC1 [Example 54, 2-(Butylsulfonylamino)-N-cyclohexyl-5-methylbenzamide] | 4 |
| CCCCS(=O)(=O)Nc1ccc(C)cc1C(=O)NC(C)c1ccccc1 (stereo not drawn) [Example 55] | 4.6 |
